The target of the experiment is T1, Jmjd4 (Homo sapiens, UniProt Q9H9V9).
T1 construct: recombinant from E. coli, Ni-NTA purified
T1 sequence (Q9H9V9 1-417): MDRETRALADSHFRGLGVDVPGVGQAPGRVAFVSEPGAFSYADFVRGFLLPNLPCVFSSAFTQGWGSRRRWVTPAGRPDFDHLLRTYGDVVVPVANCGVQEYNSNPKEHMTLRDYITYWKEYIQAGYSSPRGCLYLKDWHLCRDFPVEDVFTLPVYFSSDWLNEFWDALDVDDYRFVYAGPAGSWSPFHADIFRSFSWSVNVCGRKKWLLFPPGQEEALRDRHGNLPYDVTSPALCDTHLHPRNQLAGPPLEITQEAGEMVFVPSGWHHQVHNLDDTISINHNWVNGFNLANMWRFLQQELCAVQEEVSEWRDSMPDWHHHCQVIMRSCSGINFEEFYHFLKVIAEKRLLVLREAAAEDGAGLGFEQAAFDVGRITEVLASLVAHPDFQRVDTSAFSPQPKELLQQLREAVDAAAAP
As to the kind of experiment: in vitro hydroxylation of recombinant eRF1 K63. Type of experiment: biochemical. The conditions noted are these: eRF1 as prime substrate; Fe(II), 2OG; competitive with 2OG (stated for 2OG oxygenases in general).

Molecules are shown by their SMILES.

As for `O=C(O)CNC(=O)C(=O)O` [NOG], the “in vitro hydroxylation of recombinant eRF1 K63” value was “eRF1 K63 hydroxylation was significantly impaired by a 2OG competitive inhibitor (NOG, N-Oxalylglycine)”.

Values taken from PMC3991326, “Optimal Translational Termination Requires C4 Lysyl Hydroxylation of eRF1” (Molecular Cell, 2014).
